Test results published in publication PMC4444405 (Chemical biology & drug design, 2014).
Read-outs that look alike come from different tables or passages of the source. Square brackets hold non-standard residues; d marks the D form. Ends that are not written are not given here. pY = N[C@@H](Cc1ccc(OP(=O)(O)O)cc1)C(=O)O

Legend:
[1] = biological target: T1, Src-YEEI:pFAK peptide complex (Homo sapiens, UniProt P12931); assay: Z'Lyte end-point in vitro kinase assay, Src-YEEI in presence of pFAK peptide; assay type: biochemical; details: compound 10 μM; Z'Lyte library screen
[2] = system: Src-YEEI:pFAK peptide complex; assay: as above; assay type: biochemical, human; details: ratio of the IC50 values for Src-YEEI:pFAK peptide complex and Src-YEEI alone, Z'Lyte
[3] = biological target: T2, Src-YEEI (Homo sapiens, UniProt P12931); assay type: biochemical
[4] = biological target: T1, Src-YEEI:pFAK peptide complex; assay type: biochemical; details: read-out: IC50, Src-YEEI + pFAK, ADP Quest
[5] = system: Src-YEEI:pFAK peptide complex; assay type: biochemical, human; details: ratio of the IC50 values for Src-YEEI:pFAK peptide complex and Src-YEEI alone, ADP Quest
[6] = biological target: T2, Src-YEEI; assay type: biochemical; details: read-out: IC50, Src-YEEI alone, ADP Quest
[7] = biological target: T2, Src-YEEI; assay type: biochemical; remark: listed apart in the source
[8] = biological target: T2, Src-YEEI; assay type: biochemical; remark: listed apart in the source

Row | Molecule | percent inhibition of Src-YEEI:pFAK peptide complex in the screening assay [1] | Selectivity ratio, Z'Lyte [2] | percent inhibition of Src-YEEI alone in the screening assay ([3]; 10 µM) | IC50 ([3]; read-out: IC50, Src-YEEI alone, Z'Lyte) | IC50 [4] | Selectivity ratio, ADP Quest [5] | IC50 [6] | percent of maximal activation of Src-YEEI [7] | rate of ADP production by Src-YEEI in presence of peptide [8]
1 | COc1ccc(N(C(=O)Oc2c(C)cccc2C)c2ccnc(Nc3ccc(N4CCN(C)CC4)cc3)n2)c(OC)c1 [WH-4-023] | more than 70% | 0.94 | more than 70% | 1280 nM | 25 nM | 0.76 | 19 nM |  | 
2 | AAAARALPSIPKLAN NEKQGVRSHTVSVSETDDY^PAEIID (AAAARALPSIPKLANNEKQGVRSHTVSVSETDD[pY]AEIID) [pFAK] |  |  |  |  |  |  |  | 40% | 1.0 pmol ADP produced/min
